Laboratory results reported in US12030929B2, “Fusobacterium nucleatum amyloid-like FadA for diagnosis and treatment of Fn-mediated pathogenesis” (The Trustees of Columbia University in the City of New York, priority 2021, dated 2024).

Key:
[1] = test system: Fn binding to human CRC cells DLD1; assay: Cell culture attachment assay, DLD1; type: cell-based; conditions: bacteria washed twice with 1 mg/ml Congo Red, MOI 50:1
HCT116 xenograft tumors = assay: CRC xenograft model; type: in vivo; conditions: Fn 12230 washed in 1 mg/ml Congo Red, injected into tumors; IHC one week later; nude mice
Experimental: FIG. 5A-5D. Amyloid-like FadA mediates colonization in CRC and promotes tumor growth in vivo. 5A. Analysis of Fn colonization in mouse xenograft tumors by IHC. An inoculum of 5×10^6 HCT116 cells was injected subcutaneously and bilaterally into the nude mice. Once the tumors became visible (after 3-4 days), approximately 5×10^6 CFU of Fn 12230 washed in PBS or 1 mg/ml Congo Red (CR) were injected into the tumors. The tumors were extracted one week later, and the formalin-fixed and embedded (FFPE) tissues were stained with mAb 7H7. Note the brown stains in tumor injected with PBS-washed tumor, but not in CR-washed tumor. 5B. Effects of secreted amyloid-like FadA on tumor growth. HCT116 cells were injected into the nude mice as described above, followed by injection of 5×10^6 CFU of Fn 12230 (Fn, n=7), lam (n=3) or US1 (ΔfadA, n=4). The tumor volumes were measured immediately before bacteria injection (Day 0, designated as 100%), and at 3 days after injection (Day 3). The horizontal lines represent averages of tumor volumes (left panel). The individual tumors are shown (right panel). **p<0.01, ***p<0.001 (t-test). 5C. […] The tumor volumes were measured on Day 0 and Day 5 as described above. […] The tumor volumes were measured described above. […]
CRC xenograft model. […] The tumor length and width were measured using calipers and tumor volumes were calculated using the following formula: Volume=(width)2×length/2. […]

US1 (ΔfadA) = assay: pH tolerance assay, fadA-deletion mutant; type: cell-based, Fusobacterium nucleatum; conditions: stationary phase; pH 4.0; 50 μg/ml Congo Red; 1 or 2 hours

Nc1c(/N=N/c2ccc(-c3ccc(/N=N/c4cc(S(=O)(=O)O)c5ccccc5c4N)cc3)cc2)cc(S(=O)(=O)O)c2ccccc12 [Congo Red]
effect on Fn binding to DLD1 ([1]; log phase): little or no effect on binding
reduction of Fn binding to DLD1 ([1]; stationary phase): ~5 fold
Fn colonization in xenograft tumors (HCT116 xenograft tumors): significantly inhibited Fn colonization in xenograft tumors
viability of US1 (ΔfadA) in acidic environment (US1 (ΔfadA)): without affecting US1 (ΔfadA)
